According to PubChem BioAssay (NCI):
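Growth conditions: 96-well plates. Treatment: test compound, 48 hours, 5 concentrations. Analysis: linear interpolation between bracketing concentrations; unreached endpoints set to highest concentration. GI50 = concentration required for 50% inhibition of growth. TGI: total growth inhibition.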

What was measured:
Assay in all cases: NCI tumour cell line growth inhibition, 48 h
HOP-62 NSCLC = tested on: HOP-62 NSCLC
MOLT-4 leukemia = tested on: MOLT-4 leukemia
NCI-H23 lung = tested on: NCI-H23 lung
NCI-H460 lung = tested on: NCI-H460 lung
NCI-H522 lung = tested on: NCI-H522 lung
SF-295 CNS = tested on: SF-295 CNS
SF-539 CNS = tested on: SF-539 CNS
SK-MEL-5 melanoma = tested on: SK-MEL-5 melanoma
SN12C renal = tested on: SN12C renal
SNB-75 CNS = tested on: SNB-75 CNS

SMILES: CC/C(Cl)=N\OC(=O)Nc1ccc(F)cc1F
- TGI (HOP-62 NSCLC): 46.1 µM
- TGI (MOLT-4 leukemia): 4.06 µM
- TGI (NCI-H23 lung): 46.5 µM
- TGI (NCI-H460 lung): 85.8 µM
- TGI (NCI-H522 lung): 3.65 µM
- TGI (SF-295 CNS): > 60 µM
- TGI (SF-539 CNS): 23.5 µM
- TGI (SK-MEL-5 melanoma): 20.6 µM
- TGI (SN12C renal): 11.5 µM
- TGI (SNB-75 CNS): 47.1 µM

SMILES: COc1ccc(C(=O)c2ccc(-n3cc(/C=C/[N+](=O)[O-])c4ccccc43)cc2)cc1
- TGI (HOP-62 NSCLC): 35.4 µM
- TGI (MOLT-4 leukemia): > 100 µM
- TGI (NCI-H23 lung): 52.4 µM
- TGI (NCI-H460 lung): > 66.1 µM
- TGI (NCI-H522 lung): 33.8 µM
- TGI (SF-295 CNS): > 100 µM
- TGI (SF-539 CNS): 31.3 µM
- TGI (SK-MEL-5 melanoma): > 61.9 µM
- TGI (SN12C renal): 42.7 µM
- TGI (SNB-75 CNS): > 100 µM

SMILES: Cc1ccc(S(=O)(=O)N/N=C2\C3CC4CC(C3)C2C4)cc1 (stereo not given)
- TGI (HOP-62 NSCLC): > 100 µM
- TGI (MOLT-4 leukemia): > 100 µM
- TGI (NCI-H23 lung): > 100 µM
- TGI (NCI-H460 lung): > 100 µM
- TGI (NCI-H522 lung): > 100 µM
- TGI (SF-295 CNS): > 100 µM
- TGI (SF-539 CNS): > 100 µM
- TGI (SK-MEL-5 melanoma): > 100 µM
- TGI (SN12C renal): > 100 µM
- TGI (SNB-75 CNS): > 100 µM

SMILES: COc1cc2cc(C(=O)N3CC(CCl)c4c3cc([N+](C)(C)Cc3ccc([N+](=O)[O-])n3C)c3ccccc43)[nH]c2c(OC)c1OC (stereo not given)
- TGI (HOP-62 NSCLC): > 100 µM
- TGI (MOLT-4 leukemia): 16 µM
- TGI (NCI-H23 lung): 2.49 µM
- TGI (NCI-H460 lung): 5.41 µM
- TGI (NCI-H522 lung): 0.981 µM
- TGI (SF-295 CNS): > 38.8 µM
- TGI (SF-539 CNS): 14.3 µM
- TGI (SK-MEL-5 melanoma): 4.18 µM
- TGI (SN12C renal): > 62.4 µM
- TGI (SNB-75 CNS): 7.18 µM

SMILES: COC(=O)c1ccc(/C=C2\CCc3ccccc3C2=O)cc1
- TGI (HOP-62 NSCLC): > 100 µM
- TGI (MOLT-4 leukemia): > 100 µM
- TGI (NCI-H23 lung): > 100 µM
- TGI (NCI-H460 lung): > 100 µM
- TGI (NCI-H522 lung): > 100 µM
- TGI (SF-295 CNS): > 100 µM
- TGI (SF-539 CNS): > 100 µM
- TGI (SK-MEL-5 melanoma): > 100 µM
- TGI (SN12C renal): > 100 µM
- TGI (SNB-75 CNS): > 100 µM

SMILES: O=S1(=O)CCN(c2ccccc2CC(c2c[nH]c3ccccc23)c2c[nH]c3ccccc23)CC1
- TGI (HOP-62 NSCLC): 35.7 µM
- TGI (MOLT-4 leukemia): 8.87 µM
- TGI (NCI-H23 lung): 22.6 µM
- TGI (NCI-H460 lung): 13 µM
- TGI (NCI-H522 lung): 17.2 µM
- TGI (SF-295 CNS): 49.9 µM
- TGI (SF-539 CNS): 32 µM
- TGI (SK-MEL-5 melanoma): 19.8 µM
- TGI (SN12C renal): 24.1 µM
- TGI (SNB-75 CNS): 23.6 µM

SMILES: COc1cc(-n2cc(-c3cc(O)c(C/C=C(\C)CCC=C(C)C)c(O)c3)nn2)cc2c1O[C@]1(C)CC[C@@H](O)C(C)(C)[C@H]1C2
- GI50 (HOP-62 NSCLC): 0.564 µM
- TGI (HOP-62 NSCLC): 12.7 µM
- GI50 (MOLT-4 leukemia): 0.0671 µM
- TGI (MOLT-4 leukemia): 1.36 µM
- GI50 (NCI-H23 lung): 3.26 µM
- TGI (NCI-H23 lung): 31.3 µM
- GI50 (NCI-H460 lung): 1.13 µM
- TGI (NCI-H460 lung): 14.9 µM
- GI50 (NCI-H522 lung): 1.19 µM
- TGI (NCI-H522 lung): 4.35 µM
- GI50 (SF-295 CNS): 0.028 µM
- TGI (SF-295 CNS): 0.122 µM
- GI50 (SF-539 CNS): 0.0664 µM
- TGI (SF-539 CNS): 1.76 µM
- GI50 (SK-MEL-5 melanoma): 1.33 µM
- TGI (SK-MEL-5 melanoma): 5.77 µM
- GI50 (SN12C renal): 3.86 µM
- TGI (SN12C renal): > 41.4 µM
- GI50 (SNB-75 CNS): 0.208 µM
- TGI (SNB-75 CNS): 15 µM

SMILES: Cc1cc2n([O-])cccc-2[n+](=O)c1
- TGI (HOP-62 NSCLC): > 100 µM
- TGI (MOLT-4 leukemia): > 100 µM
- TGI (NCI-H23 lung): > 100 µM
- TGI (NCI-H460 lung): > 100 µM
- TGI (NCI-H522 lung): > 100 µM
- TGI (SF-295 CNS): > 100 µM
- TGI (SF-539 CNS): > 100 µM
- TGI (SK-MEL-5 melanoma): > 100 µM
- TGI (SN12C renal): > 100 µM
- TGI (SNB-75 CNS): > 100 µM

SMILES: CCCCCCCCCCCCCCCCOCC(Cl)COP(=O)(O)OP(=O)(O)OCC1OC(n2cnc3c(N)ncnc32)C(O)C1O (stereo not given)
- TGI (HOP-62 NSCLC): > 100 µM
- TGI (MOLT-4 leukemia): > 100 µM
- TGI (NCI-H23 lung): > 100 µM
- TGI (NCI-H460 lung): > 100 µM
- TGI (NCI-H522 lung): > 100 µM
- TGI (SF-295 CNS): > 100 µM
- TGI (SF-539 CNS): > 100 µM
- TGI (SK-MEL-5 melanoma): > 100 µM
- TGI (SN12C renal): > 100 µM
- TGI (SNB-75 CNS): 89.7 µM

SMILES: CC(C)(C)OC(=O)N1CCc2c(n(C/C=C/c3ccccc3)[nH]c2=O)C1
- TGI (HOP-62 NSCLC): > 100 µM
- TGI (MOLT-4 leukemia): > 100 µM
- TGI (NCI-H23 lung): > 100 µM
- TGI (NCI-H460 lung): > 100 µM
- TGI (NCI-H522 lung): > 100 µM
- TGI (SF-295 CNS): > 100 µM
- TGI (SF-539 CNS): > 100 µM
- TGI (SK-MEL-5 melanoma): > 100 µM
- TGI (SN12C renal): > 100 µM
- TGI (SNB-75 CNS): > 100 µM

SMILES: Cc1ccc(/C=C2\CN(C)CC3C2=NC(=S)NC3c2ccc(C)cc2)cc1 (stereo not given)
- TGI (HOP-62 NSCLC): > 100 µM
- TGI (MOLT-4 leukemia): 56 µM
- TGI (NCI-H23 lung): > 100 µM
- TGI (NCI-H460 lung): > 100 µM
- TGI (NCI-H522 lung): > 100 µM
- TGI (SF-295 CNS): > 100 µM
- TGI (SF-539 CNS): > 100 µM
- TGI (SK-MEL-5 melanoma): > 100 µM
- TGI (SN12C renal): > 100 µM
- TGI (SNB-75 CNS): > 100 µM

SMILES: O=C(OCc1ccccc1C1CSCSC1)c1cc(C(=O)OCc2ccccc2C2CSCSC2)c(C(=O)OCc2ccccc2C2CSCSC2)cc1C(=O)OCc1ccccc1C1CSCSC1
- TGI (HOP-62 NSCLC): > 100 µM
- TGI (MOLT-4 leukemia): > 100 µM
- TGI (NCI-H23 lung): > 100 µM
- TGI (NCI-H460 lung): > 100 µM
- TGI (NCI-H522 lung): > 100 µM
- TGI (SF-295 CNS): > 100 µM
- TGI (SF-539 CNS): > 100 µM
- TGI (SK-MEL-5 melanoma): > 100 µM
- TGI (SN12C renal): > 100 µM
- TGI (SNB-75 CNS): > 100 µM

SMILES: COc1ccc(-c2nc(-c3cnccn3)n(C3OC(CO)C(O)C(O)C3O)n2)cc1 (stereo not given)
- TGI (HOP-62 NSCLC): > 100 µM
- TGI (MOLT-4 leukemia): > 100 µM
- TGI (NCI-H23 lung): > 100 µM
- TGI (NCI-H460 lung): > 100 µM
- TGI (NCI-H522 lung): > 100 µM
- TGI (SF-295 CNS): > 100 µM
- TGI (SF-539 CNS): > 100 µM
- TGI (SK-MEL-5 melanoma): > 100 µM
- TGI (SN12C renal): > 100 µM
- TGI (SNB-75 CNS): > 100 µM

SMILES: CC1(C)[C@@H]2CC[C@@]1(C)[C@H](O)[C@@H]2SCc1ccccc1
- TGI (HOP-62 NSCLC): 33 µM
- TGI (MOLT-4 leukemia): 49.7 µM
- TGI (NCI-H23 lung): 29.1 µM
- TGI (NCI-H460 lung): 39.9 µM
- TGI (NCI-H522 lung): 29.3 µM
- TGI (SF-295 CNS): 33 µM
- TGI (SF-539 CNS): 34.6 µM
- TGI (SK-MEL-5 melanoma): 29.1 µM
- TGI (SN12C renal): 34.5 µM
- TGI (SNB-75 CNS): 49.1 µM

SMILES: O=P(O)(O)CN1CCNCCN(CP(=O)(O)O)CCNCC1
- TGI (HOP-62 NSCLC): > 100 µM
- TGI (MOLT-4 leukemia): > 100 µM
- TGI (NCI-H23 lung): > 100 µM
- TGI (NCI-H460 lung): 13.1 µM
- TGI (NCI-H522 lung): > 100 µM
- TGI (SF-295 CNS): > 100 µM
- TGI (SF-539 CNS): > 100 µM
- TGI (SK-MEL-5 melanoma): > 42 µM
- TGI (SN12C renal): > 100 µM
- TGI (SNB-75 CNS): > 100 µM

SMILES: CC1=C2C(=O)c3ccccc3C(=O)[C@H]2C[C@@H](N2CCCCCC2=O)O1
- TGI (HOP-62 NSCLC): 33 µM
- TGI (MOLT-4 leukemia): 58.5 µM
- TGI (NCI-H23 lung): 31.1 µM
- TGI (NCI-H460 lung): 33.3 µM
- TGI (NCI-H522 lung): 38.9 µM
- TGI (SF-295 CNS): 35.6 µM
- TGI (SF-539 CNS): 33.7 µM
- TGI (SK-MEL-5 melanoma): 29.6 µM
- TGI (SN12C renal): 34.5 µM
- TGI (SNB-75 CNS): 45.1 µM
